Counter-ions that a name gives are not always drawn.
Tests used:
MCF-7 cells = assay: MTT cytotoxicity assay, MCF-7; format: cell-based, human; conditions: MCF7; human breast cancer cell line MCF-7, MTT method, 24 h treatment, mean ± SD; read-out: IC50 MCF-7
Protocol: (§1) The anticancer activities of compounds 17–24, 41–56 against MCF-7, MDA-MB-231 and hTERT-RPE1 cells were determined in vitro by an MTT assay. […] The data was calculated and presented as IC50 values in Table 1.
(§2) The cytotoxicities of the compounds were evaluated by the MTT assay, which is based on the conversion of MTT to formazan crystals by mitochondrial dehydrogenases. […] The medium was incubated with 20 μL of 5 mg/mL MTT solution for 3 h in a humidified incubator containing 5% CO2. The purple coloured formazan crystals formed in the wells were dissolved in DMSO and their absorbances were measured at 570 nm with a microplate reader. Cell viability was expressed as a percentage of the value in control cultures.

MDA-MB-231 cells = assay: MTT cytotoxicity assay, MDA-MB-231; format: cell-based, human; conditions: human breast cancer cell line MDA-MB-231, MTT method, 24 h treatment, mean ± SD; read-out: IC50 MDA-MB-231
Protocol: The data was calculated and presented as IC50 values in Table 1.
as §2

hTERT-RPE1 cells = assay: MTT cytotoxicity assay, hTERT-RPE1 normal cells; format: cell-based, human; conditions: normal human retinal pigment epithelial cell line hTERT-RPE1, MTT method, 24 h treatment, mean ± SD; read-out: IC50 hTERT-RPE1
Protocol: as §1, §2

Row | Structure (SMILES) | melting point | IC50 (MCF-7 cells) | IC50 (MDA-MB-231 cells) | IC50 (hTERT-RPE1 cells)
1 | CCOC(=O)/C=C/c1cccc(OC(=O)[C@@]2(C)CC[C@]3(C)CC[C@]4(C)C(=CC(=O)[C@@H]5[C@@]6(C)CC[C@H](OC(=O)[C@@H](N)CC[Se]C)C(C)(C)[C@@H]6CC[C@]54C)[C@@H]3C2)c1 (as salt: hydrochloride) [Compound 56, trans-3-Hydroxycinnamic acid ethyl ester 3β-(l-selenomethionine)-11-oxo-olean-12-en-30-oate hydrochloride] | 191 to 194 °C | – | – | –
2 | CCOC(=O)/C=C/c1ccc(OC(=O)[C@@]2(C)CC[C@]3(C)CC[C@]4(C)C(=CC(=O)[C@@H]5[C@@]6(C)CC[C@H](OC(=O)[C@@H](N)CC[Se]C)C(C)(C)[C@@H]6CC[C@]54C)[C@@H]3C2)c(OC)c1 (as salt: hydrochloride) [Compound 44, Ferulic acid ethyl ester 3β-(l-selenomethionine)-11-oxo-olean-12-en-30-oate hydrochloride] | 205 to 207 °C | – | – | –
3 | CCOC(=O)/C=C/c1ccc(OC)c(OC(=O)[C@@]2(C)CC[C@]3(C)CC[C@]4(C)C(=CC(=O)[C@@H]5[C@@]6(C)CC[C@H](OC(=O)[C@@H](N)CC[Se]C)C(C)(C)[C@@H]6CC[C@]54C)[C@@H]3C2)c1 (as salt: hydrochloride) [Compound 52, Isoferulic acid ethyl ester 3β-(l-selenomethionine)-11-oxo-olean-12-en-30-oate hydrochloride] | 196 to 198 °C | – | – | –
4 | COC(=O)/C=C/c1ccc(OC(=O)[C@@]2(C)CC[C@]3(C)CC[C@]4(C)C(=CC(=O)[C@@H]5[C@@]6(C)CC[C@H](OC(=O)[C@@H](N)CC[Se]C)C(C)(C)[C@@H]6CC[C@]54C)[C@@H]3C2)cc1 (as salt: hydrochloride) [Compound 46, trans-4-Hydroxycinnamic acid methyl ester 3β-(l-selenomethionine)-11-oxo-olean-12-en-30-oate hydrochloride] | 218 to 221 °C | – | – | –
5 | COC(=O)/C=C/c1cccc(OC(=O)[C@@]2(C)CC[C@]3(C)CC[C@]4(C)C(=CC(=O)[C@@H]5[C@@]6(C)CC[C@H](OC(=O)[C@@H](N)CC[Se]C)C(C)(C)[C@@H]6CC[C@]54C)[C@@H]3C2)c1 (as salt: hydrochloride) [Compound 54, trans-3-Hydroxycinnamic acid methyl ester 3β-(l-selenomethionine)-11-oxo-olean-12-en-30-oate hydro-chloride] | 194 to 196 °C | – | – | –
6 | COC(=O)/C=C/c1ccc(OC)c(OC(=O)[C@@]2(C)CC[C@]3(C)CC[C@]4(C)C(=CC(=O)[C@@H]5[C@@]6(C)CC[C@H](OC(=O)[C@@H](N)CC[Se]C)C(C)(C)[C@@H]6CC[C@]54C)[C@@H]3C2)c1 (as salt: hydrochloride) [Compound 50, Isoferulic acid methyl ester 3β-(l-selenomethionine)-11-oxo-olean-12-en-30-oate hydrochloride] | 201 to 203 °C | – | – | –
7 | CCOC(=O)/C=C/c1ccc(OC)c(OC(=O)[C@@]2(C)CC[C@]3(C)CC[C@]4(C)C(=CC(=O)[C@@H]5[C@@]6(C)CC[C@H](OC(=O)[C@@H](N)CCSC)C(C)(C)[C@@H]6CC[C@]54C)[C@@H]3C2)c1 (as salt: hydrochloride) [Compound 51, Isoferulic acid ethyl ester 3β-(l-methionine)-11-oxo-olean-12-en-30-oate hydrochloride] | 192 to 195 °C | – | – | –
8 | COC(=O)/C=C/c1ccc(OC(=O)[C@@]2(C)CC[C@]3(C)CC[C@]4(C)C(=CC(=O)[C@@H]5[C@@]6(C)CC[C@H](O)C(C)(C)[C@@H]6CC[C@]54C)[C@@H]3C2)cc1 [Compound 19, trans-4-Hydroxycinnamic acid methyl ester 3β-hydroxy-11-oxo-olean-12-en-30-oate] | 202 to 205 °C | 20.3 ± 1.47 µM | 14.4 ± 0.52 µM | 29.6 ± 1.16 µM
9 | COC(=O)/C=C/c1cccc(OC(=O)[C@@]2(C)CC[C@]3(C)CC[C@]4(C)C(=CC(=O)[C@@H]5[C@@]6(C)CC[C@H](O)C(C)(C)[C@@H]6CC[C@]54C)[C@@H]3C2)c1 [Compound 23, trans-3-Hydroxycinnamic acid methyl ester 3β-hydroxy-11-oxo-olean-12-en-30-oate] | 188 to 190 °C | 14.9 ± 0.75 µM | 20.8 ± 1.2 µM | 24.1 ± 0.88 µM
10 | COC(=O)/C=C/c1ccc(OC(=O)[C@@]2(C)CC[C@]3(C)CC[C@]4(C)C(=CC(=O)[C@@H]5[C@@]6(C)CC[C@H](OC(=O)[C@@H](N)CC[Se]C)C(C)(C)[C@@H]6CC[C@]54C)[C@@H]3C2)c(OC)c1 (as salt: hydrochloride) [Compound 42, Ferulic acid methyl ester 3β-(l-selenomethionine)-11-oxo-olean-12-en-30-oate hydrochloride] | 210 to 213 °C | – | – | –

Continued, in another order:

Row | melting point | Structure (SMILES) | IC50 (MCF-7 cells) | IC50 (MDA-MB-231 cells) | IC50 (hTERT-RPE1 cells)
11 | 229 to 231 °C | COC(=O)/C=C/c1ccc(OC(=O)[C@@]2(C)CC[C@]3(C)CC[C@]4(C)C(=CC(=O)[C@@H]5[C@@]6(C)CC[C@H](O)C(C)(C)[C@@H]6CC[C@]54C)[C@@H]3C2)c(OC)c1 [Compound 17, Ferulic acid methyl ester 3β-hydroxy-11-oxo-olean-12-en-30-oate] | 13.6 ± 0.93 µM | 5.03 ± 0.82 µM | 17.3 ± 1.21 µM
12 | 202 to 204 °C | CCOC(=O)/C=C/c1ccc(OC(=O)[C@@]2(C)CC[C@]3(C)CC[C@]4(C)C(=CC(=O)[C@@H]5[C@@]6(C)CC[C@H](OC(=O)[C@@H](N)CCSC)C(C)(C)[C@@H]6CC[C@]54C)[C@@H]3C2)cc1 (as salt: hydrochloride) [Compound 47, trans-4-Hydroxycinnamic acid ethyl ester 3β-(l-methionine)-11-oxo-olean-12-en-30-oatehydrochloride] | – | – | –
13 | 183 to 185 °C | CCOC(=O)/C=C/c1cccc(OC(=O)[C@@]2(C)CC[C@]3(C)CC[C@]4(C)C(=CC(=O)[C@@H]5[C@@]6(C)CC[C@H](OC(=O)[C@@H](N)CCSC)C(C)(C)[C@@H]6CC[C@]54C)[C@@H]3C2)c1 (as salt: hydrochloride) [Compound 55, trans-3-Hydroxycinnamic acid ethyl ester 3β-(l-methionine)-11-oxo-olean-12-en-30-oate hydrochloride] | – | – | –
14 | 173 to 175 °C | CCOC(=O)/C=C/c1cccc(OC(=O)[C@@]2(C)CC[C@]3(C)CC[C@]4(C)C(=CC(=O)[C@@H]5[C@@]6(C)CC[C@H](O)C(C)(C)[C@@H]6CC[C@]54C)[C@@H]3C2)c1 [Compound 24, trans-3-Hydroxycinnamic acid ethyl ester 3β-hydroxy-11-oxo-olean-12-en-30-oate] | 19.3 ± 0.98 µM | 23.2 ± 1.07 µM | 22.9 ± 0.68 µM
15 | 191 to 194 °C | CCOC(=O)/C=C/c1ccc(OC(=O)[C@@]2(C)CC[C@]3(C)CC[C@]4(C)C(=CC(=O)[C@@H]5[C@@]6(C)CC[C@H](OC(=O)[C@@H](N)CCSC)C(C)(C)[C@@H]6CC[C@]54C)[C@@H]3C2)c(OC)c1 (as salt: hydrochloride) [Compound 43, Ferulic acid ethyl ester 3β-(l-methionine)-11-oxo-olean-12-en-30-oate hydrochloride] | – | – | –
16 | 210 to 213 °C | CCOC(=O)/C=C/c1ccc(OC)c(OC(=O)[C@@]2(C)CC[C@]3(C)CC[C@]4(C)C(=CC(=O)[C@@H]5[C@@]6(C)CC[C@H](O)C(C)(C)[C@@H]6CC[C@]54C)[C@@H]3C2)c1 [Compound 22, Isoferulic acid ethyl ester 3β-hydroxy-11-oxo-olean-12-en-30-oate] | 19.3 ± 1.01 µM | 9.41 ± 1.03 µM | 21.1 ± 0.73 µM
17 | 224 to 226 °C | CCOC(=O)/C=C/c1ccc(OC(=O)[C@@]2(C)CC[C@]3(C)CC[C@]4(C)C(=CC(=O)[C@@H]5[C@@]6(C)CC[C@H](O)C(C)(C)[C@@H]6CC[C@]54C)[C@@H]3C2)c(OC)c1 [Compound 18, Ferulic acid ethyl ester 3β-hydroxy-11-oxo-olean-12-en-30-oate] | 22.5 ± 1.26 µM | 8.14 ± 0.76 µM | 22.8 ± 0.97 µM
18 | 190 to 192 °C | COC(=O)/C=C/c1cccc(OC(=O)[C@@]2(C)CC[C@]3(C)CC[C@]4(C)C(=CC(=O)[C@@H]5[C@@]6(C)CC[C@H](OC(=O)[C@@H](N)CCSC)C(C)(C)[C@@H]6CC[C@]54C)[C@@H]3C2)c1 (as salt: hydrochloride) [Compound 53, trans-3-Hydroxycinnamic acid methyl ester 3β-(l-methionine)-11-oxo-olean-12-en-30-oate hydrochloride] | – | – | –
19 | 205 to 207 °C | COC(=O)/C=C/c1ccc(OC(=O)[C@@]2(C)CC[C@]3(C)CC[C@]4(C)C(=CC(=O)[C@@H]5[C@@]6(C)CC[C@H](OC(=O)[C@@H](N)CCSC)C(C)(C)[C@@H]6CC[C@]54C)[C@@H]3C2)cc1 (as salt: hydrochloride) [Compound 45, trans-4-Hydroxycinnamic acid methyl ester 3β-(l-methionine)-11-oxo-olean-12-en-30-oate hydrochloride] | – | – | –
20 | 203 to 205 °C | COC(=O)/C=C/c1ccc(OC(=O)[C@@]2(C)CC[C@]3(C)CC[C@]4(C)C(=CC(=O)[C@@H]5[C@@]6(C)CC[C@H](OC(=O)[C@@H](N)CCSC)C(C)(C)[C@@H]6CC[C@]54C)[C@@H]3C2)c(OC)c1 (as salt: hydrochloride) [Compound 41, Ferulic acid methyl ester 3β-(l-methionine)-11-oxo-olean-12-en-30-oate hydrochloride] | – | – | –

— article PMC6274419, “Synthesis and Anticancer Activities of Glycyrrhetinic Acid Derivatives” (Molecules, 2016)
